Measurements published in patent publication US20210040054A1, “Substituted Hydrophobic Benzene Sulfonamide Thiazole Compounds for Use in Treating Cancer” (INSERM (Institut National de la Sante et de la Recherche …, priority 2015, published 2021).
Entries after “also recorded” stand apart in the source; their conditions may differ.

How the values were obtained:
Type in all cases: cell-based
[1] = tested on: MiaPACA cell lines (resistant to the nucleoside analog Gemcitabine); test: Cell viability on Gemcitabine-resistant pancreatic cancer cells (FIG. 2c)
Experimental: (§1) Cells were seeded in 6-well plates (60000 cells/well), depleted and incubated with compounds for the times indicated. Then cells were detached in the presence of 200 μl of HyQTase (Thermo) and 2 ml of RPMI 1640 Glutamax (Gibco) was added to the cell solution. 10 μl of this solution was stained for 1 minute with 10 μl of 0.4% trypan blue before counting with a Malassez chamber.
(§2) FIG. 1: the Effect of Compounds Ia-7, IIIa-3, IIIa-1, IIIa-2, 11a-2, 11a-9, Ia-4, Ha-11, IIa-12, IIa-6, Compared to Ia-1, on Cell Viability on A375 Melanoma Cells. Cell viability was assessed by measuring the number of cells alive in samples of different cells. The measure of cell viability as performed by cell counting using the trypan blue exclusion method. Results were expressed as the percentage of cells alive relatively to the number of living cells in the presence of DMSO, which corresponds to the negative control associated to the 100% value. […] The very active compounds IIa-2, IIIa-1 and IIIa-3 substituted in para position respectively with an octyne, hexyl and octyl chain, were selected to investigate their potential to promote cell death on resistant melanoma cell lines as well as other cancer cell lines. FIG. 2a. Effect of Compounds 11a-2, IIIa-1 and IIIa-3 on Cell Viability on Melanoma Cells. PLX4032 was Used as a Positive Control. […] FIG. 2b. Effect of Compounds IIa-2, IIIa-1 and IIIa-3 on Cell Viability on CML Cells. Imatinib was Used as a Positive Control. The activity of compounds IIa-2, IIIa-1 and IIIa-3 against CML cells was also evaluated. […] FIG. 2c. Effect of Compounds IIa-2, IIIa-1 and IIIa-3 on Cell Viability on Pancreatic Cancer Cells. Gemcitabine was Used as a Positive Control. The compounds IIa-2, IIIa-1 and IIIa-3 were next evaluated against pancreatic cells, BxPC3 (sensitive) and MiaPACA cell lines (resistant to the nucleoside analog Gemcitabine).

[2] = tested on: sensitive melanoma cell lines; test: Cell viability on sensitive melanoma cell lines (FIG. 2a); conditions: 10 μM
Experimental: (§3) Different melanoma cell lines were purchased from American Tissue Culture Collection (Molsheim, France). Cells were grown in RPMI 1640 (A375, WM9 and patient melanoma cells) or in DMEM medium (Mel501) supplemented with 10% FCS and penicillin/streptomycin (100 U/ml/[…]) at 37° C. and 5% CO2.
as §1
as §2, with “Effect of Compounds IIa-2, IIIa-1 and IIIa-3 on Cell Viability on Pancreatic Cancer Cells. Gemcitabine was Used as a Positive Control.” left out

resistant K562 cells = test: Cell viability on resistant CML cells (FIG. 2b); conditions: compared with Imatinib
Experimental: as §1, §2

A375 melanoma cells = test: Cell viability, trypan blue exclusion cell counting (FIG. 1); conditions: compared to reference compound Ia-1
Experimental: as §3, §1
as §2, with “Effect of Compounds IIa-2, IIIa-1 and IIIa-3 on Cell Viability on Pancreatic Cancer Cells. Gemcitabine was Used as a Positive Control.” left out

[3] = tested on: resistant A375 R5C3 an A375 RIV cell lines; test: Cell viability on resistant melanoma cell lines (FIG. 2a); conditions: resistant A375 R5C3 and A375 RIV cell lines; 10 μM
Experimental: as §3, §1, §2

sensitive K562 CML cells = test: Cell viability on sensitive CML cells (FIG. 2b); conditions: compared with Imatinib
Experimental: as §1, §2

BxPC3 (sensitive) = test: Cell viability on sensitive pancreatic cancer cells (FIG. 2c); conditions: compared with Gemcitabine
Experimental: as §1, §2

A375 melanoma cell line = test: Western blot, mechanism of death: PARP cleavage (apoptosis) and LCII/LCIII conversion (autophagy) (FIG. 4); conditions: IIa-2 at 10 μM
Experimental: Proteins were extracted in Fisher buffer containing TRIS-HCl pH 7.5 50 mM, NaCl 15 mM, Triton X-100 1% and proteases and phosphatases inhibitors. Briefly, cell lysates (30 μg) were separated by SDS-PAGE, transferred onto a PVDF membrane (Millipore, Molsheim, France) and then exposed to the appropriate antibodies. Proteins were visualized with the ECL system from Amersham (Arlington, Heights, Ill., USA). The western blots shown are representative of at least 3 independent experiments.

Normal human fibroblasts = test: Viability of normal fibroblasts (FIG. 3); conditions: different concentration of IIa-2
Experimental: Normal human fibroblasts prepared from foreskins of newborns were grown under 5% CO2 at 37° C. in DMEM medium supplemented with 10% FCS and penicillin/streptomycin (100 U/ml/[…]).
as §1
(§4) Primary cell cultures of human normal melanocytes were prepared from human foreskin. In order to determine the effect of compound IIa-2 on cell viability of melanocytes and fibroblasts, different concentration of IIa-2 were added to the cell samples. The measure of cell viability was performed in the same way as for FIG. 1. Results are expressed as the percentage of living cells relatively to the number of living cells in the presence of DMSO, as for FIG. 1.

human normal melanocytes = test: Viability of normal melanocytes (FIG. 3); conditions: different concentration of IIa-2
Experimental: Normal human melanocytes (NHM) prepared from foreskins of newborns were grown under 5% CO2 at 37° C. in MCDB 153 (Sigma) supplemented with 2% FCS, bovine pituitary extract (10 μg/ml), PMA (8 nM), bFGF (1 ng/ml), insulin (5 μg/ml), hydrocortisone (0.5 μg/ml), forskolin (10 μM), gentamicin (20 μg/ml), penicillin/streptomycin/amphotericin B (100 U/ml) (Invitrogen).
as §1, §4

Compound | cell viability [1] | cell viability [2] | cell viability (resistant K562 cells) | cell viability (percentage of cells alive relatively to DMSO) (A375 melanoma cells) | cell viability [3] | cell viability (sensitive K562 CML cells) | cell viability (BxPC3 (sensitive)) | mechanism of death: PARP cleavage (apoptosis) and LCII/LCIII conversion (autophagy) (A375 melanoma cell line) | cell viability of normal cells (percentage of living cells relatively to DMSO) (Normal human fibroblasts) | cell viability of normal cells (percentage of living cells relatively to DMSO) (human normal melanocytes)
Nc1ccn([C@@H]2O[C@H](CO)[C@@H](O)C2(F)F)c(=O)n1 [Gemcitabine, reference compound] | inactive | – | – | – | – | – | – | – | – | –
CCCCCCc1ccc(S(=O)(=O)Nc2cccc(-c3csc(NC(C)=O)n3)c2)cc1 [IIIa-1, N-(4-(3-((4-hexylphenyl)sulfonamido)phenyl)thiazol-2-yl)acetamide] | still very active | strong activity | much more active | very active | strong activity | viability decrease in the same range than the standard BCR-ABL inhibitor Imatinib | very high activity | – | – | –
CCCCCCCCc1ccc(S(=O)(=O)Nc2cccc(-c3csc(NC(C)=O)n3)c2)cc1 [IIIa-3, N-(4-(3-((4-octylphenyl)sulfonamido)phenyl)thiazol-2-yl)acetamide] | still very active | strong activity | much more active | very active | strong activity | viability decrease in the same range than the standard BCR-ABL inhibitor Imatinib | very high activity | – | – | –
CCCCCCC#Cc1ccc(S(=O)(=O)Nc2cccc(-c3csc(NC(C)=O)n3)c2)cc1 [IIa-2, N-(4-(3-((4-(oct-1-yn-1-yl)phenyl)sulfonamido)phenyl)thiazol-2-yl)acetamide] | – | strong activity | much more active; also recorded: almost total mortality | very active | strong activity | viability decrease in the same range than the standard BCR-ABL inhibitor Imatinib | very high activity; also recorded: total cell death | induced both apoptosis and autophagy cellular deaths | no effect | no effect
CCCS(=O)(=O)Nc1ccc(F)c(C(=O)c2c[nH]c3ncc(-c4ccc(Cl)cc4)cc23)c1F [PLX4032, reference compound] | – | – | – | – | looses most activity | – | – | only apoptosis is induced | – | –
